What is called AC50 is the concentration at which the activity in the assay is half-maximal. A low value points to activity at low concentration.

Assay [1] has as its target Beta-3 adrenergic receptor (Homo sapiens, UniProt P13945).
The target of the next assay is Histamine H2 receptor (Homo sapiens, UniProt P25021).
Another assay concerns the target T1, Progesterone receptor (Homo sapiens, UniProt P06401).
T1 sequence (P06401 whole entry): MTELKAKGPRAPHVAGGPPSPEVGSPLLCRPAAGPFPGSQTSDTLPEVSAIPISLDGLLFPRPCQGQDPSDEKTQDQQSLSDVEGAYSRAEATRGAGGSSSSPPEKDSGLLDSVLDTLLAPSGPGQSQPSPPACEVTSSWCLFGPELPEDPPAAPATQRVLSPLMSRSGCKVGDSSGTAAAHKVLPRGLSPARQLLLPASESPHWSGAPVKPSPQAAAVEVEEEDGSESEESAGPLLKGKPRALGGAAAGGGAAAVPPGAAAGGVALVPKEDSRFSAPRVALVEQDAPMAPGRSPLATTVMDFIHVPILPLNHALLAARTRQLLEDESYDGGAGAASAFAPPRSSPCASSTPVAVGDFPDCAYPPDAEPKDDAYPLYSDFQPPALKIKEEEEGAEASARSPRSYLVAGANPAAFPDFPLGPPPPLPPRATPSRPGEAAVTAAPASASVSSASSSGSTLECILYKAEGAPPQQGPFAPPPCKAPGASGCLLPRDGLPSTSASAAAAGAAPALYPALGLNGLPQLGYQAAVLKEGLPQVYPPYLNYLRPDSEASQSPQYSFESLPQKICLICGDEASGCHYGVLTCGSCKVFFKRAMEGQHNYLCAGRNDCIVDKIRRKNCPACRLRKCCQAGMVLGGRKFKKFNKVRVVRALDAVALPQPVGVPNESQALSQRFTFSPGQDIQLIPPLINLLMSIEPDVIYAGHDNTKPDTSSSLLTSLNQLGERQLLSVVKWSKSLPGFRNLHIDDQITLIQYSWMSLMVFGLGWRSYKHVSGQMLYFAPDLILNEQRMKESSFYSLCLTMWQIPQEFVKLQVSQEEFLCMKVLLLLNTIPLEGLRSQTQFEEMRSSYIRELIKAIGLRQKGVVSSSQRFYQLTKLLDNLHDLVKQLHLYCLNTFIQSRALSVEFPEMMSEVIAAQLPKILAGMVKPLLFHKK

The target of assay [2] is T2, Alpha-2A adrenergic receptor (Homo sapiens, UniProt P08913).
T2 sequence (P08913 whole entry): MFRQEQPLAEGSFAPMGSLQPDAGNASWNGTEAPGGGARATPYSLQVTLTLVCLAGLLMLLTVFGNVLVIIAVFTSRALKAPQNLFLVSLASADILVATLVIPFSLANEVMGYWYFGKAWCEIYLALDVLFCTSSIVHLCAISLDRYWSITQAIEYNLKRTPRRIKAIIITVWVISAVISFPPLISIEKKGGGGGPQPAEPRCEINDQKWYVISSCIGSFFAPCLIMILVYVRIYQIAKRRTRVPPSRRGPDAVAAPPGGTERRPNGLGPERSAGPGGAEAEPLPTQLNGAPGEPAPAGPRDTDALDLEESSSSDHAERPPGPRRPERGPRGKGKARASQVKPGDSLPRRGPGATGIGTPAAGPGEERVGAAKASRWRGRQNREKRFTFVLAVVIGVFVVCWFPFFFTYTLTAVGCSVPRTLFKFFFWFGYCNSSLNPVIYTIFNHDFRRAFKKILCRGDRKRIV

A further assay has as its target T3, D(4) dopamine receptor (Homo sapiens, UniProt P21917).
T3 sequence (P21917 whole entry): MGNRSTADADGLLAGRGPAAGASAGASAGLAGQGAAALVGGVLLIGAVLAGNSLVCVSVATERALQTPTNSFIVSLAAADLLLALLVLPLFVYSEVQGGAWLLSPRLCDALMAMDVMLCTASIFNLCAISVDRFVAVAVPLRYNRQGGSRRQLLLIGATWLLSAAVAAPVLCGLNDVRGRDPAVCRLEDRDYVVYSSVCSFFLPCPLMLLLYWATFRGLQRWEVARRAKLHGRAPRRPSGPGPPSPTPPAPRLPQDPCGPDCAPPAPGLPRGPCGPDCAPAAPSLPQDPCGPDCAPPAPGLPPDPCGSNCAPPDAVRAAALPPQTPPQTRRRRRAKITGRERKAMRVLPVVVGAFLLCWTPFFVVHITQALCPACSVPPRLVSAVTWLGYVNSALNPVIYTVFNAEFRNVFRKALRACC

The target in assay [3] is Sodium channel protein type 5 subunit alpha (Homo sapiens, UniProt Q14524). The class given is functional, cell-based.
Sequence of Sodium channel protein type 5 subunit alpha (Q14524 whole entry): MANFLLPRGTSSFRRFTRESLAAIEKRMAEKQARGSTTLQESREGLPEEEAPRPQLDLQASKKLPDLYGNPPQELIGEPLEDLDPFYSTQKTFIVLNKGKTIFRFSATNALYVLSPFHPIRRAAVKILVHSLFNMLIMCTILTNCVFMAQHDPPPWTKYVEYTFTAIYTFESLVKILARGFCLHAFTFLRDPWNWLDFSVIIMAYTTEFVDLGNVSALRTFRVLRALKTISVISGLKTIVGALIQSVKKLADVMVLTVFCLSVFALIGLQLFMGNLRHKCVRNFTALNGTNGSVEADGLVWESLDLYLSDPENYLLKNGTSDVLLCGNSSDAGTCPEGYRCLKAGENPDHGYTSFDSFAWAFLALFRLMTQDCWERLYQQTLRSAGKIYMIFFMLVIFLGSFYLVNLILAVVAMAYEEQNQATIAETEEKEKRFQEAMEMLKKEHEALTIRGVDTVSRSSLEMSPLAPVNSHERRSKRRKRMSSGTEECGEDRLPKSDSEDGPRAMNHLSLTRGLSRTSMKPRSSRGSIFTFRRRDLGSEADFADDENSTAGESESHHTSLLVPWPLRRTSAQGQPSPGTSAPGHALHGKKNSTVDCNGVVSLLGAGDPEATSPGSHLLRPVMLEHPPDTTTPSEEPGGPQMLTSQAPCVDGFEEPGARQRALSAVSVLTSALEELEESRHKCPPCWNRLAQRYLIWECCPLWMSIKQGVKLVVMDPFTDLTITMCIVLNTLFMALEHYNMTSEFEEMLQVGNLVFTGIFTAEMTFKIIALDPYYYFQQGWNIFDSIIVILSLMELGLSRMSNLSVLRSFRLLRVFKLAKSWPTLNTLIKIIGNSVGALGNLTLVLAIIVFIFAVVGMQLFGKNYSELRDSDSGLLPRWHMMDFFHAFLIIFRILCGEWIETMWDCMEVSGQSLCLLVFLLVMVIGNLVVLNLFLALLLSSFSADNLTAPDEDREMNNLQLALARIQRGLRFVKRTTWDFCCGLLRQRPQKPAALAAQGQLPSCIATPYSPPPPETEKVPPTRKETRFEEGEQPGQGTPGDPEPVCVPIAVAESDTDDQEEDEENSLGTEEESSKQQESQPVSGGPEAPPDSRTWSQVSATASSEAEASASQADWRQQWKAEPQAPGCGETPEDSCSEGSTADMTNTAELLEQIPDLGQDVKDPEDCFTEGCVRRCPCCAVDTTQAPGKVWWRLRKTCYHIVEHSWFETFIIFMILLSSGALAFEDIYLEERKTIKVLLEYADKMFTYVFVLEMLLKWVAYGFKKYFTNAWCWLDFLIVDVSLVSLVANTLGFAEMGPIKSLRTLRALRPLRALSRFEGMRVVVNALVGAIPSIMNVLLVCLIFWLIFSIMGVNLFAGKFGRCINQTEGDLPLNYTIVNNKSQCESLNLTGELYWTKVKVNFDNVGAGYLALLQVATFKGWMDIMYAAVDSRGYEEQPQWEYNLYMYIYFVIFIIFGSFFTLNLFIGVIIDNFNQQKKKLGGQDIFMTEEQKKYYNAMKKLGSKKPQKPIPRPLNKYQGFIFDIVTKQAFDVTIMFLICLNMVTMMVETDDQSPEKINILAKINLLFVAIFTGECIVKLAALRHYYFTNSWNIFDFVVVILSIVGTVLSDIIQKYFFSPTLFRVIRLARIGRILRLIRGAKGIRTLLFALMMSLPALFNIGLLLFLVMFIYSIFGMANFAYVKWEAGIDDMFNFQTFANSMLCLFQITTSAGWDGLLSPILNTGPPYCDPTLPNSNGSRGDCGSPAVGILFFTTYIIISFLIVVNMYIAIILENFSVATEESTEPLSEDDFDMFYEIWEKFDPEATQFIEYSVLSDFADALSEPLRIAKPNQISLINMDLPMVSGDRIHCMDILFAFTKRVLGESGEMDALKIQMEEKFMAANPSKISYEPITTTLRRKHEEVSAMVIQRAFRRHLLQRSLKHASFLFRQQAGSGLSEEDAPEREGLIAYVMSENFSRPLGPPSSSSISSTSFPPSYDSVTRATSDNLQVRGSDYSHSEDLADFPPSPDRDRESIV
Assay [4] addresses T4, Corticotropin-releasing factor receptor 1 (Homo sapiens, UniProt P34998).
T4 sequence (P34998 whole entry): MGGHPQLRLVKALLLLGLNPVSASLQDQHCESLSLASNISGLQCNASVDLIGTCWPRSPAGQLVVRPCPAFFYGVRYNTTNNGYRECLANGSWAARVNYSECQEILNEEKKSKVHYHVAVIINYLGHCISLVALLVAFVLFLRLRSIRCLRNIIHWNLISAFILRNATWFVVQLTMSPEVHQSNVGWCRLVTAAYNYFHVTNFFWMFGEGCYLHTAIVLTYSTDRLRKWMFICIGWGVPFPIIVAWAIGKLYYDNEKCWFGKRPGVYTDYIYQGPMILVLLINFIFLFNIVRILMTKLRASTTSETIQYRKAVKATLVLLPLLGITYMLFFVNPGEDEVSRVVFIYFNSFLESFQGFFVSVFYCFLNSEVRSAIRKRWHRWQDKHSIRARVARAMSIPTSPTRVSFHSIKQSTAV

The target in assay [5] is Neurotensin receptor type 1 (Homo sapiens, UniProt P30989).
Sequence of Neurotensin receptor type 1 (P30989 whole entry): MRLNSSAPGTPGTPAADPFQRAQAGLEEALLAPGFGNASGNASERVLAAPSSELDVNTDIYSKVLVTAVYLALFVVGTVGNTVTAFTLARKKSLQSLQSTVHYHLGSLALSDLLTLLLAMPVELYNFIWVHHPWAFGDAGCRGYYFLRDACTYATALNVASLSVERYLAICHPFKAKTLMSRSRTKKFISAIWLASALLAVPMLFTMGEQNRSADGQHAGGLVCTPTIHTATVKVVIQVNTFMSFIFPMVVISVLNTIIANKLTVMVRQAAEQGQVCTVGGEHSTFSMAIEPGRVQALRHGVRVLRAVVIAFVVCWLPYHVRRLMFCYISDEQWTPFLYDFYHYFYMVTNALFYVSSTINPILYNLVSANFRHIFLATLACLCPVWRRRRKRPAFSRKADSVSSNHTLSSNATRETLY
The target of a further assay is T5, Thromboxane A2 receptor (Homo sapiens, UniProt P21731).
T5 sequence (P21731 whole entry): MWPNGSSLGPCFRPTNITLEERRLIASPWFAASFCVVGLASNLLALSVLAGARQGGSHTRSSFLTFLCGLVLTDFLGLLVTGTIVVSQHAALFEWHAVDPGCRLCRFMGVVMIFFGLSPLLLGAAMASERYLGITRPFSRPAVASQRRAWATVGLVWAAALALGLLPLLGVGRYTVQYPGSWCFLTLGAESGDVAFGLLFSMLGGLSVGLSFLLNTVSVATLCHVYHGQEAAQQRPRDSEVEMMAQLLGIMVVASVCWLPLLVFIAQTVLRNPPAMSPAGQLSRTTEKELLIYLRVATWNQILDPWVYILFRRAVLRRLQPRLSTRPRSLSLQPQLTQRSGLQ
Type of assay: functional, cell-based.

The target in assay [6] is Sodium-dependent dopamine transporter (Homo sapiens, UniProt Q01959).
Sequence of Sodium-dependent dopamine transporter (Q01959 whole entry): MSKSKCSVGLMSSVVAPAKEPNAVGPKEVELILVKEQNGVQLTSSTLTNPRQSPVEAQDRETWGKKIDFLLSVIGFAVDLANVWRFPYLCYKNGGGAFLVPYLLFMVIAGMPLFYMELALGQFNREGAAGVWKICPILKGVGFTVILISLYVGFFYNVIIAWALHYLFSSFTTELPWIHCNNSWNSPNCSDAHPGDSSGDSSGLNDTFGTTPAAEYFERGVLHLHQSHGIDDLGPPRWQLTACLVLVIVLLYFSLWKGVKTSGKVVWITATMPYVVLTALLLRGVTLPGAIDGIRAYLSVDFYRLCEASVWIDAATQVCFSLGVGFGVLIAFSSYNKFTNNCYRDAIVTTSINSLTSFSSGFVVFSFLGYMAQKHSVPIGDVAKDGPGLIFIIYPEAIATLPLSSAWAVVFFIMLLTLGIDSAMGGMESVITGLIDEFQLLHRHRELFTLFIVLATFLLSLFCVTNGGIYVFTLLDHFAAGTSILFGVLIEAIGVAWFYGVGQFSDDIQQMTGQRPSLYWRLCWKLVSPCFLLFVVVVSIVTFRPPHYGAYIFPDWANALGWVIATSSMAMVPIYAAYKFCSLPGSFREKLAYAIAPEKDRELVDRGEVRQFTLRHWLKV
In assay [7] the target is cGMP-inhibited 3',5'-cyclic phosphodiesterase 3A (Homo sapiens, UniProt Q14432). The class given is functional.
Sequence of cGMP-inhibited 3',5'-cyclic phosphodiesterase 3A (Q14432 whole entry): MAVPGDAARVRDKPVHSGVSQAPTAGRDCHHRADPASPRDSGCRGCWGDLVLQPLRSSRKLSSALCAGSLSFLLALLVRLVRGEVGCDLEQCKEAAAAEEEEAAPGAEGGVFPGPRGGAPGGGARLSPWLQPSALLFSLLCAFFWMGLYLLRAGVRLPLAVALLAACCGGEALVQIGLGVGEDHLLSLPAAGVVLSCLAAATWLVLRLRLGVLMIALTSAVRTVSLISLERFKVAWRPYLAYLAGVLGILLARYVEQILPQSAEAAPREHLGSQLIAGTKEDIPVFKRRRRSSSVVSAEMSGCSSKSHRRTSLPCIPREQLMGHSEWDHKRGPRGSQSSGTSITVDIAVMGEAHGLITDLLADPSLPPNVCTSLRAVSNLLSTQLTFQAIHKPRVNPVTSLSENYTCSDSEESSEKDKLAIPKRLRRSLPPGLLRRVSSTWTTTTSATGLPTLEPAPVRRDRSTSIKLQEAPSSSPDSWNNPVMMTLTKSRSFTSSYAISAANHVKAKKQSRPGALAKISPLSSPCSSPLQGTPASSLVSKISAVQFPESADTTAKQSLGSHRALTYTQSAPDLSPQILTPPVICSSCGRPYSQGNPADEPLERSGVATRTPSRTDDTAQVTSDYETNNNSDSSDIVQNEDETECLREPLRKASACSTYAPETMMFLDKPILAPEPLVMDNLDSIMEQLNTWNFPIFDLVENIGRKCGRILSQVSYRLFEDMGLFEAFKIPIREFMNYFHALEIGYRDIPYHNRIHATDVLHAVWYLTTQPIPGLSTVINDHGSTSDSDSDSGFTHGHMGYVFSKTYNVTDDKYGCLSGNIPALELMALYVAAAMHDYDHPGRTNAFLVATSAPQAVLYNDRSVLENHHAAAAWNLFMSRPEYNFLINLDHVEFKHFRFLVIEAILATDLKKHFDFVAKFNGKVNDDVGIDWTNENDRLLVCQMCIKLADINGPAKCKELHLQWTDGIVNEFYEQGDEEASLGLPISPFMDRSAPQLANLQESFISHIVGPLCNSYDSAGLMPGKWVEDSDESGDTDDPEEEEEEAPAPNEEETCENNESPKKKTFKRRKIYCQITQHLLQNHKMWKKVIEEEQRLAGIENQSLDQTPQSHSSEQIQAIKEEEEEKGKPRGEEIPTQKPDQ
Also: assay procedure not described here.

Sequence of Histamine H2 receptor (P25021 whole entry): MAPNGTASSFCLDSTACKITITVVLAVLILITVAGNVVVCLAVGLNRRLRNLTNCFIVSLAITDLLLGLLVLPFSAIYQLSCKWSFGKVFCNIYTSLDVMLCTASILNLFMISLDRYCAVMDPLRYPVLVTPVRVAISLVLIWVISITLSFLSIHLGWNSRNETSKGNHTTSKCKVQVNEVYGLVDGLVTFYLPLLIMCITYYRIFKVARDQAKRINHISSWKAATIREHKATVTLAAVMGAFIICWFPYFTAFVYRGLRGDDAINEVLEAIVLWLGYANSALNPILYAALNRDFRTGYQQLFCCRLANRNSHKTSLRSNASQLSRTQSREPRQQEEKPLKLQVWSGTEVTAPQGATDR
Sequence of Beta-3 adrenergic receptor (P13945 whole entry): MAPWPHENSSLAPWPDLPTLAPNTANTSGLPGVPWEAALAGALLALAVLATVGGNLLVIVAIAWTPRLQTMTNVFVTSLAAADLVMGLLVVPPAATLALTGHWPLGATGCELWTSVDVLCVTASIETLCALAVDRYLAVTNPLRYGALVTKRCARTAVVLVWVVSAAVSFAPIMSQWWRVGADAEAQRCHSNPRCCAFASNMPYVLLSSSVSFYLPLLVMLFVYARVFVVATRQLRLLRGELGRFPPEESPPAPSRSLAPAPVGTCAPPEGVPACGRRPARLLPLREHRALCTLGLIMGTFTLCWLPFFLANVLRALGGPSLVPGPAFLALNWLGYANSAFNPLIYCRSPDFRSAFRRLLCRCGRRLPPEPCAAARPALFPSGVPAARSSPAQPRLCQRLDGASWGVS

Turning to `Clc1ccccc1C(c1ccccc1)(c1ccccc1)n1ccnc1` [CLOTRIMAZOLE], the half-maximal activity concentration (AC50) in assay [1] was determined as 8.78 µM; at Histamine H2 receptor it was 17.4 µM.
For `Cc1c(OCC(F)(F)F)ccnc1C[S+]([O-])c1nc2ccccc2[nH]1` (stereo not drawn) [LANSOPRAZOLE], the concentration at half-maximal activity (AC50) at Progesterone receptor is more than 30 µM; in [2] it was more than 10 µM; at D(4) dopamine receptor, 2.11 µM; in assay [3], more than 30 µM; in assay [1], more than 30 µM; in assay [4] it was more than 30 µM. Moreover, the AC50 in assay [5] was more than 30 µM; on Histamine H2 receptor, 8.52 µM.
For `CO[C@]12C[C@@H](COC(=O)c3cncc(Br)c3)CN(C)[C@@H]1Cc1cn(C)c3cccc2c13` [NICERGOLINE], the half-maximal activity concentration (AC50) at Thromboxane A2 receptor is more than 30 µM; in [6] it was 11.2 µM; in assay [7] it was more than 30 µM.
Consider `CC/C(=C(\c1ccccc1)c1ccc(OCCN(C)C)cc1)c1ccccc1` [TAMOXIFEN], for which the figures for the AC50 (in assay [2]; in [1]; on Histamine H2 receptor) were more than 10 µM, 6.61 µM and 1.75 µM, respectively.
As to `COc1cccc(C2(O)CCCCC2CN(C)C)c1` (stereo not drawn) [TRAMADOL], the half-maximal activity concentration (AC50) at Progesterone receptor is more than 30 µM; in assay [2], more than 10 µM; on D(4) dopamine receptor it was more than 10 µM; in [1], more than 30 µM; in assay [4] it was more than 30 µM; in assay [5], more than 30 µM. At Histamine H2 receptor, this compound came in with an AC50 of more than 10 µM.
On to `Cc1nnc2n1-c1ccc(Cl)cc1C(c1ccccc1Cl)=NC2` [TRIAZOLAM], for which the AC50 on Progesterone receptor is more than 30 µM.
With THIMEROSAL, the AC50 is more than 30 µM on Thromboxane A2 receptor, more than 30 µM in assay [6], more than 30 µM in [7] and more than 50 µM in [3].

The values are drawn from ChEMBL document CHEMBL5291721, “A preclinical secondary pharmacology resource illuminates target-adverse drug reaction associations of marketed drugs” (Nat Commun, 2023).
